Data set [1] concerns ring tissue model. Description: Contractile force developed by ring sample during tissue development (matrix remodeling and compression). The format is cell-based. As to the method: The contractile force developed by the ring sample during matrix remodeling and compression can be measured by connecting the ring to the force measuring apparatus as described above within about 1-2 hours after collagen gelation. The cells begin to exert a force on the matrix after this time. Then the increase of force during tissue development (remodeling and compression) is observed over time.
Maximum force is typically reached within 15 to 20 hours. This process was also disrupted by several inhibitors as illustrated in FIGS. 18(b)-(d).

Data set [2] concerns bio-artificial tissues (extracellular matrix, cellular contractility). The data set is described as follows: Tissue indentation device: mechanical changes in ECM, EA and pre-tension (Example 17). The format is cell-based. As to the method: To verify the sensitivity for detecting changes in the mechanical properties of extracellular matrix (ECM) by the device, different concentrations of collagenase (1, 10, 100 U/ml) were administered to the different sets of bio-artificial tissues at time indicated by the arrow (b) in FIG. 33. All the bio-artificial tissues were treated with Endothelin-1 (50 nM, arrow a) to make sure the cells were responding to a contractile stimuli.
Experimental groups are separated into control (no treatment, filled circle), and treatments with 1, 10, 100 U/ml collagenase indicated by open circle, open triangle, and open square, respectively. After addition of 1 U/ml collagenase, the pre-tension, i.e. cellular contractility, was maintained compared to that of untreated control. […] While the collagenase digested the collagen matrix and affected ECM stiffness, the cell-ECM connection was slowly disrupted. Therefore, the cellular contractility was decreased especially with higher concentrations of collagenase. Nevertheless, the dataset indicated the measurement system sensitively detected incremental changes in ECM mechanics depending on the level of collagen degradation by the increasing concentrations of collagenase. At the 20 min time point (10 min after collagenase treatment), the apparent reduction of EA, but not pre-tension, indicates the EA was more sensitive to treatments affecting the extracellular matrix.

The test system of data set [3] is chicken cardiac cells. Description: Force response of regular and miniaturized cardiac tissue models. The format is cell-based. As to conditions: regular and miniaturized tissues, after calf serum. As to the method: The sample sizes are determined by the diameters of the mandrels and inner diameters of the wells. […] Miniaturized samples made using chick cardiac cells show twitch responses. Therefore this system can be used to test the effects of pharmaceutical candidates treating cardiac dysfunctions (Insert in FIG. 9b)

The subject of data set [4] is NIH 3T3 cells. The data set is described as follows: Stress relaxation of tension in connective tissue models. The format is cell-based. Particulars: different amounts. As to the method:
The connective tissue models made using NIH 3T3 cells were treated with different amounts of the candidate pharmaceutical, Y27632, a Rho kinase specific inhibitor, which has been tested for reducing tension of smooth muscle strips such as rabbit aortic rings (Nature 239 (1997) 990-993). It is one of the promising drug candidates for treating hypertension in the future. Depending on the agonists used to stimulate the tissue contraction, the degree of reduction in tension is different (FIG. 21). […] Thus, the methods are useful for screening pharmaceutical candidates.

Data set [5] has as its system rat embryo fibroblast derived cell line (REF52). Description: Force response of ring samples to physiological activators without stretching. The format is cell-based. As to conditions: each drug added to a single tissue ring. As to the method: Ring samples made using a rat embryo fibroblast derived cell line (REF52) were prepared as described previously herein. The length of the tissue was maintained at a constant level during the test. Each of the drugs indicated in FIG. 15 was added to a single tissue ring.

The test system of data set [6] is chicken embryo cardiac fibroblasts (CECFs). The data set is described as follows: Contractile response of ring samples to agonists, CECFs. It is filed as cell-based. The text has this: (§1) Profiles of contractile response to different agonists applied to ring samples were made using chicken embryo cardiac fibroblasts (CECFs) and rat adult cardiac fibroblasts (RACFs) and are shown in FIGS. 16(a)-(d) and FIGS. 16(e)-(h), respectively.
(§2) Time dependent force profiles after addition of FBS (20% v/v) were different depending on the pretreatment by different agonists.

In data set [7] the test system is rat adult cardiac fibroblasts (RACFs). The data set is described as follows: Contractile response of ring samples to agonists, RACFs. It is filed as cell-based.
Description: as §1, §2

The subject of data set [8] is smooth muscle cells (SMCs) isolated from rat aorta. Description: Tissue indentation device: acute time-dependent cell force (Example 18). It is filed as cell-based. As to conditions: measured at 0, 1, 4 and 7 min; 50 nM Norepinephrine, 100 nM Endothelin, 10% FBS (FIG. 34).
Description: To test the system's ability to measure acute time-dependent response after treating the ETs, vasoconstrictors, norepinephrine and endothelin-1 and general constricting agent, fetal bovine serum (FBS) were added to bio-artificial tissues with smooth muscle cells (SMCs) isolated from rat aorta (10^6 SMCs per ml of bio-artificial tissue solution at bio-artificial tissue formation). The force generated by these bio-artificial tissues was measured at 0, 1, 4 and 7 min after adding the agents. […] The total acquisition time for 64 data points was 40 minutes.
In data set [9] the test system is tissue models.
Data set [10] relates to chicken embryo fibroblasts (CEF's) tissue model. The data set is described as follows: Ring system: isometric force and dynamic stiffness of fibroblast populated matrices (FPM). It is filed as cell-based. As to conditions: for IC50: serial additions, sigmoidal dependence. As to the method:
Chicken embryo fibroblasts (CEF's) isolated from 11-day chicken embryos (Spafas Inc., Preston, Conn.) were maintained in Dulbecco's modified Eagle's medium (DMEM) supplemented with 10% fetal calf serum (FCS), penicillin at 50 units/ml, and streptomycin at 50 microgram/milliliter. The CEF's used to make tissue models were passaged once or twice from primary cultures. Monomeric collagen solubilized in 0.02 M acetic acid (Upstate Biotechnology Inc., Lake Placid, N.Y.) was neutralized at 4° C. with 0.1 N NaOH and mixed with concentrated DMEM stock to yield a final normal DMEM concentration. The fibroblasts suspended by trypsin (FIG. 1a) were mixed with the collagen solution (FIG. 1b), the cell suspension was poured into Teflon casting wells (FIG. 1c), and the wells were incubated at 37° C. with 5% CO2 (FIG. 1d). The collagen polymerized within 15-30 min and fibroblasts were captured within the hydrated collagen gel. The collagen gel formed a ring (3 mm thick, 3 cm diameter) between the inner wall of the cylindrical well and the central mandrel. While in culture the cells compressed this ring, reducing its volume about 10-fold (thickness 200-300 μm). The ring could then be removed from the mandrel (FIG. 1e and FIG. 1f) and mounted on the measuring instrument (FIG. 1g) as described below.
Mechanical measurements were carried out using a ring system. After two days of incubation (serum starvation for the final 12-16 hours), the mandrel was removed from the casting well and the tissue model-ring was removed gently from the mandrel. As shown in FIG. 1 the tissue model-ring was looped over the triangular hook connected to an isometric force transducer (Model 52-9545, Harvard Apparatus, South Natick, Mass.) by a fine, flexible gold chain. The ring was also looped over a horizontal bar connected to a sliding element moveable vertically and linearly by a stepper motor (P/N 1-19-3400 24V DC 1.8° step size, Haward Industry, St. Louis, Mo.) controlled by a micro-stepping driver (IM483 Intelligent Motion Systems) to measure stress and dynamic modulus of the sample. The micro-stepping driver was controlled by a personal computer with software which enabled the stepper motor to achieve smooth motion. An analog-to-digital signal converter (CIO-DAS1602/16, Computer Boards, Inc., Mansfield, Mass.) attached to the computer translated the voltage signal from the isometric force transducer to a digital signal for recording on a data recorder. The stepper motor controlled the stretching of the tissue. Force exerted by or on the tissue was transmitted to the force transducer by the gold chain.
The tissue sample was submerged in 50 ml Hepes-buffered DMEM (pH 7.4) in a thermo-regulated organ bath (Harvard Apparatus, South Natick, Mass.) maintained at 37° C. The two horizontal bars over which the ring was looped were initially set to hold the ring at its original contour length (corresponding to the circumference of the mandrel).
Typically, for stiffness measurements, the tissue model is subjected to a sequence of stretch cycles. In each cycle the tissue model is slowly stretched from 0 to 20% over 30 minutes and the tissue model is then returned at the same rate to its original length by actuation of the stepper motor. The resulting increase in contractile force during the first stretch is substantially larger than the contractile force in subsequent stretches (FIG. 2a). For each stretch after the first stretch there is a further small decrease in maximum contractile force, but the decrease becomes negligible after sufficient pre-stretching. The tissue models produced contractile force in response to the activation of fibroblasts by serum. This contractile force was abolished by disrupting the actin cytoskeleton with cytochalasin D (2 μM) (FIG. 2b).
The amplitude of the force response divided by the stretching amplitude corresponded to the dynamic stiffness of the sample subjected to a preselected sinusoidal length change. […]

For data set [11], the system named is myosin ATPase. Description: Inhibition of contractile force activated by 20% FBS in ring sample. It is filed as cell-based. As to conditions: after prior addition of 20% FBS; 2, 4, 20, and 40 μM BDM. As to the method:
In a related experiment, FBS was added to activate the contractile force and then a myosin ATPase inhibitor was added.

Like-named read-outs stand apart in the source and are kept apart here.

Consider `COC(=O)Nc1nc2ccc(C(=O)c3cccs3)cc2[nH]1` [nocodazole], for which the “maximum force during ring tissue development” value in [1] was “reduces the maximum force”.

With `CO[C@H]1[C@@H](OC)C[C@H](C)[C@@H](OC)C2=CC(=O)C=C(NC(=O)/C(C)=C/C=C\[C@H](OC)[C@@H](OC(N)=O)/C(C)=C/[C@@H]1C)C2=O` [herbimycin A], the “maximum force during ring tissue development” value in [1] is recorded as “reduces the maximum force”.

On to collagenase, for which the “pre-tension (cellular contractility) compared to untreated control” value in data set [2] (1 U/ml collagenase, after Endothelin-1 50 nM) was “maintained”. Moreover, the “EA (tissue stiffness)” value in data set [2] (1 U/ml collagenase, about 10 min after treatment) was “began to be reduced”. In [2] (10 U/ml collagenase, for ~10 min), the “pre-tension (cellular contractility)” value was “didn't reduce the pre-tension significantly”. In data set [2] (100 U/ml collagenase, ~10 min after treatment), the “drop of EA (tissue stiffness)” value is “already significant”.

Consider `C[C@@H](N)[C@H]1CC[C@H](C(=O)Nc2ccncc2)CC1` [Y27632], for which the “force of cardiac tissue models” value in data set [3] is given as “decreased”. Moreover, in data set [4], the “tension of connective tissue models” value was “reduces the tension”.

On to `NC(=O)CC[C@@H]1NC(=O)[C@H](Cc2ccccc2)NC(=O)[C@H](Cc2ccc(O)cc2)NC(=O)[C@@H](N)CSSC[C@@H](C(=O)N2CCC[C@H]2C(=O)N[C@@H](CCCN=C(N)N)C(=O)NCC(N)=O)NC(=O)[C@H](CC(N)=O)NC1=O` [vasopressin], for which, in data set [5], the “force response of tissue ring at constant length” value (from here on “force response of tissue ring”) is listed as “produce different forces”. The “contractile response of ring” value in [6] is “did not response”; in [7], “responded”.

In the case of lysophosphatidic acid [LPA], the “force response of tissue ring” value in data set [5] is reported as “produce different forces”.

Take “EGF: epidermal growth factor (NSDSECPLSHDGYCLHDGVCMYIEALDKYACNCVVGYIGERCQYRDLKWWELR; Epidermal growth factor; UniProt P01133 971-1023, looked up)”: the “contractile response of ring” value in data set [6] is given as “did not respond to any dose”.

Turning to `CC[C@H](C)[C@H](NC(=O)[C@H](CC(=O)O)NC(=O)[C@H](CC(C)C)NC(=O)[C@H](Cc1c[nH]cn1)NC(=O)[C@@H]1CSSC[C@H](N)C(=O)N[C@@H](CO)C(=O)N[C@H]2CSSC[C@H](NC(=O)[C@H](CCC(=O)O)NC(=O)[C@H](CCCCN)NC(=O)[C@H](CC(=O)O)NC(=O)[C@H](CCSC)NC(=O)[C@H](CC(C)C)NC(=O)[C@H](CO)NC(=O)[C@H](CO)NC2=O)C(=O)N[C@@H](C(C)C)C(=O)N[C@@H](Cc2ccc(O)cc2)C(=O)N[C@@H](Cc2ccccc2)C(=O)N1)C(=O)N[C@H](C(=O)N[C@@H](Cc1c[nH]c2ccccc12)C(=O)O)[C@@H](C)CC` [endothelin, endothelin-1], in data set [5], the “force response of tissue ring” value is recorded as “produce different forces”. For the same molecule, the “contractile response of ring” value in data set [6] and in [7] was “contracted rings” in each case. Further, in [2] (Endothelin-1 50 nM), the “pre-tension (cellular contractility)” value is listed as “increased immediately”. For the same molecule, the “cell force (active force) after adding the agent” value in data set [8] is on record as “increased over time”. Besides, the “time at which cell force reached its maximum value” in data set [8] is given as 7 min.

As for `CCO` [ethanol], the “force and stiffness of tissue models” value in [9] (10% solution of ethanol) is “reduces force and stiffness of tissue models significantly”. Besides, the “level of baseline force maintained by the viable cells” value in [9] (different dose of ethanol) was “decrease”.

As for Thrombin, the “force response of tissue ring” value in [5] is recorded as “produce different forces”.

As to `NC[C@H](O)c1ccc(O)c(O)c1` [Norepinephrine, norepinephrine], the “force response of tissue ring” value in data set [5] is “reduced the initial base line force”. Besides, in data set [8], the “cell force (active force) after adding the agent” value is recorded as “increased over time” and the “time at which cell force reached its maximum value” was determined as 7 min.

For the molecule `C/C1=C/C(=O)O[C@@H]2C[C@@H](CC[C@H](C)/C=C\CC1)O[C@@](O)([C@@H]1CSC(=O)N1)C2` [LA-B, Latrunculin B], in data set [10], the “concentration at which force and dynamic stiffness reached their minimum values” is roughly 600 nM; the “concentration range over which tension and stiffness decrease” value is “single decade”; the “lowest concentration at which force and dynamic stiffness were significantly diminished” value was found to be 40 nM. The “effect on viscosity of the tissues (phase angle δ)” value in [10] (data not shown) is reported as “relatively minor effect”. For the same molecule, in [10] (read-out: estimated half maximum concentration for reducing the force), the IC50 was 53 nM. The IC50 in [10] (read-out: estimated half maximum concentration for reducing the stiffness) is 68 nM.

In the case of `CNC[C@H](O)c1cccc(O)c1` [phenylephrine], the “force response of tissue ring” value in data set [5] was “reduced the initial base line force”.

With `CC(=O)C(C)=NO` [BDM, butane dione monoxime], in data set [11], the “fully activated contractile force” value was “reduced, in a dose dependent manner”.

Consider “angiotensin II (DRVYIHPF; Angiotensin-2; UniProt P01019 25-32, looked up) [agonist]”, for which the “contractile response of ring” value in data set [6] is “did not response”; in data set [7] it was “responded”.

Values taken from patent US8227240B2, “Systems for screening pharmaceutical chemicals” (The Washington University, priority 2001, dated 2012).
